Measurements reported in patent publication US5880152A, “Butyrate prodrugs derived from lactic acid” (Vertex Pharmaceuticals, Inc., priority 1997, dated 1999).
Read-outs that look alike come from different tables or passages of the source.

Legend:
[1] = rhesus monkey, in vivo
[2] = test system: γ globin chain; assay: Efficacy study in anemic rhesus monkeys: % γ globin chain (HPLC); assay type: in vivo, rhesus monkey (anemic)
Description: (§1) Fetal hemoglobin cells (F cells), Hemoglobin F level in total Hemoglobin (% Hb F) and % γ globin chain levels were monitored before and after each of the two phases. % F cells were measured according to the protocol described in Betke et al, Blut., 4, pp. 241-9 (1958). % Hb F and % γ globin chain synthesis were measured using High Performance Liquid Chromatography (HPLC) according to the protocol described in Huisman, J. Chromagtogr., 418, pp. 277 (1987)

[3] = in vivo; cited from earlier work
[4] = test system: fetal hemoglobin; details: sickle cell anemia patients; cited from earlier work
[5] = test system: Fetal hemoglobin cells (F cells); assay: Efficacy study in anemic rhesus monkeys: % F cells; assay type: in vivo, rhesus monkey (anemic)
Description: Each group was studied in two phases, as shown below.
Phase I of the efficacy study.
I 2 Hydroxyurea 50 mg/kg/day
Phase II of the efficacy study.

[6] = test system: Hemoglobin F; assay: Efficacy study in anemic rhesus monkeys: % Hb F (HPLC); assay type: in vivo, rhesus monkey (anemic)
Description: as §1

[7] = test system: colorectal carcinoma cell lines; details: cited from earlier work
[8] = test system: urokinase plasminogen activator and its receptor mRNA; details: colon cancer cell lines; cited from earlier work
[9] = test system: pancreatic cancel cells; details: pancreatic cancer cells; cited from earlier work
[10] = test system: retinoblastoma cell lines; details: cited from earlier work
[11] = test system: tumor, leukemia; details: mice; cited from earlier work
[12] = Triglycerides and ALT in the efficacy study; details: three groups, prior to or during the two phases
[13] = test system: leukemia; details: cited from earlier work
[14] = test system: Cultured Erythroleukemic Cells; details: in vitro; cited from earlier work

NC(=O)NO [Hydroxyurea, hydroxyurea]
levels of ALT [1]: no detectable difference
levels of the triglycerides [1]: no detectable difference
change in % γ-globin chain levels ([2]; Group I): measurable increase
toxicity [3]: potentially limited by myelotoxicity and the risk of carcinogenesis
fetal hemoglobin production [4]: stimulates fetal hemoglobin production
sickling crisis [4]: reduces sickling crisis
% F cell count ([5]; animal 1, group I, end of Phase I (hydroxyurea 50 mg/kg/day, 5 weeks), before Phase I 8-10): 25%
change in % Hb F ([6]; Group I): measurable increase

CCCC(=O)[O-].[Na+] [Sodium butyrate]
apoptosis [7]: induce apoptosis
urokinase plasminogen activator and its receptor mRNA expression [8]: inhibit
antigen expression [9]: modify antigen expression
apoptosis [10]: induce apoptosis

CCCC(=O)O [arginine butyrate]
anti-tumor and anti-leukemia effects [11]: exert anti-tumor and anti-leukemia effects in mice

CCCC(=O)O[C@@H](C)C(=O)OCC [Compound IIIc]
levels of ALT [12]: no detectable difference
levels of the triglycerides [12]: no detectable difference
change in γ-globin chain levels ([2]; Groups II and III): no measurable change
change in % F cells ([5]; Groups II and III): small but significant increase
change in HbF ([6]; Groups II and III): no measurable change

CCCC(=O)O [butyric acid]
effect in leukemia patients, by inducing cell differentiation [13]: promising effects
cell differentiation [14]: induces cell differentiation
